According to patent US20250228863A1, “Methods and Products to Screen and Treat Glioblastoma Multiforme and Other Cancers, Including Breast Cancers, Using A Combination of PI3KINASE Inhibitors With Checkpoint Inhibitors” (GLOBAL CANCER TECHNOLOGY, INC., priority 2022, published 2025):

Experiments:
[1] = tested on: MCF7 SEMA7A OE cells; assay: MCF7 EV and SEMA7A over-expressing cells treated with endocrine therapy and/or PI3K inhibitor; format: cell-based, human
Procedure: Cell Culture Protocol: Cells were plated in 10 cm plates at ˜1 million cells/plate and incubated overnight to allow adherence. Cell lines and media that were used included McCoy's 5a modified media for HER2+ breast cancer cell line SKBR3 cells, and for MDA-MB-231, MDA-MB-468, MCF-7, and HS578t, culture medium was DMEM. Cells were then treated with the PI3K inhibitor: 0 uM (control), 1 uM, or 10 uM. Treated cells incubated for ˜72 hours. After incubation, cells were imaged, then harvested with 0.25% trypsin/EDTA and counted using trypan blue viability stain with Nexcelom Cellometer Mini. The MDA-MB-231 cell line is an epithelial, human breast cancer cell line that was established from a pleural effusion of a patient with metastatic mammary adenocarcinoma.
FIG. 13A, FIG. 13B, and FIG. 13C. […] MCF7EV and SEMA7A OE cells were treated for 48 hours with A) fulvestrant (7.5 nM), B} Alpelisib (1 uM), or C) the combination.
FIG. 14A, FIG. 14B, FIG. 14C, FIG. 14D, and FIG. 14E. SEMA7A-expressing cells are sensitive to both Alpelisib and a novel PI3K inhibitor (GCT.BR.1) FIG. 14A) MCF7 cells treated with vehicle, 1 uM Alpelisib and 1 uM GCT.BR.1. Scalebar=10 microns. FIG. 14B) Quantification of A. FIG. 14C) MCF7 S7 OE spheroids in suspension were treated with vehicle (DMSO), 1 uM Alpelisib or 0.5 uM GCT and stained with Calcein green viability dye after 48 h. […]

[2] = orally available; literature statement; cited from earlier work

Cc1nc(NC(=O)N2CCC[C@H]2C(N)=O)sc1-c1ccnc(C(C)(C)C(F)(F)F)c1 [Alpelisib]
sensitivity of SEMA7A-expressing cells ([1]; MCF7, 1 uM, FIG. 14): sensitive

CC1(C)OCCn2c1nc1c(N3CCOCC3)nc(-c3cnc(N)nc3)nc12 [GDC 0084]
blood brain barrier permeation [2]: can permeate the blood brain barrier

C[C@]12CC[C@@H]3c4ccc(O)cc4C[C@@H](CCCCCCCCC[S+]([O-])CCCC(F)(F)C(F)(F)F)[C@H]3[C@@H]1CC[C@@H]2O (stereo partly drawn) [fulvestrant]
response of SEMA7A over-expressing cells to treatment ([1]; 48 hours, fulvestrant 7.5 nM, Alpelisib 1 uM, FIG. 13): respond poorly
